Source: US20250325570A1, “DOSE AND REGIMEN FOR A HETEROCYCLIC PHOSPHINIC COMPOUND” (PHOST'IN THERAPEUTICS, priority 2022, published 2025)
Where “and” joins values, the source holds several entries; their conditions need not be identical. Equal values may be shown once. Read-outs that look alike come from different tables or passages of the source.

Tests used:
[1] = First-in-human trial, dose escalation phase: full-course PK profiling of PST3.1a; assay type: in vivo; conditions: for AUC / C-max / T1/2 / T-Max: oral; for Pre dosing: oral bid
Text: The proposed clinical trial is a first-in-human trial (FIH) in patients with advanced solid tumours, including a dose escalation phase (part I) enrolling patients with any type of tumour with safety/tolerability as the primary endpoint, pharmacokinetics, evaluation of a potential food effect, and efficacy as secondary endpoints, followed by an expansion phase (part II) recruiting patients with glioblastoma (GBM—23 patients, cohort 1), triple negative breast cancer (TNBC—15 patients, cohort 2) and other selected solid tumours (30 patients, cohort 3). The dose for the expansion phase is selected based on the results of the escalation phase. Pharmacodynamics and response prediction is an exploratory objective of this whole FIH study.
To characterize the pharmacokinetics (PK) profile of PST3.1a by establishing the PK profile of the drug including assessment of a potential food effect on drug exposure.
A standard 3+3 design is followed for the escalation phase. PST3.1a is administered orally twice a day (bid) continuously in cycles of 21 days. At each Dose Level (DL), three patients are included and the first patient is observed for at least 21 days before enrolling the following two. Three additional patients are enrolled at each DL if a Dose Limiting Toxicity (DLT) is observed in the first three patients. No intra-patient dose escalation is allowed. The Maximum Tolerated Dose (MTD) is defined as the highest dose at which a DLT is observed in 0/3 or 1/6 patients and is considered as the recommended phase 2 dose (RP2D).
The dose escalation phase includes two steps: • In step 1, one dose (DL1) of PST3.1a is tested, corresponding to the dose of 10 mg/kg/day bid.
Two full-course PK profiling are obtained for each patient: one at C1D1 (Cycle 1/Day 1) in fasted state patients and another at C2D1 (Cycle 2/Day 1) in fed state patients (omitting the evening dose of PST3.1a on CID1 and C2D1). • In step 2, three DL (DL2a to 4a) with PST3.1a administered to fasted patients at the dose of 20, 40 and 70 mg/kg/day bid (i.e. twice a day), respectively, and/or three DL (DL2b to 4b) with PST3.1a administered to fed patients at the dose of 10, 20 and 40 mg/kg/day bid, respectively, could be opened.
For each patient included in the second step of the dose escalation, a full-course PK profiling is performed: • a. for DL2a, 3a and 4a, at C1D1 in fasted state; • b. for DL2b, 3b and 4b at C1D1 in fed state; • c. for DL2b only, 4 days before beginning treatment (C1D4), in fasted state.
PST3.1a is supplied as a drinkable solution in vials of 2 mL and 10 mL. Patients are provided with an appropriate number of 2 mL and 10 mL vials, as well as with a specific dosing device, in order to combine them to reach the appropriate volume. Volumes of DP to be administered at each dosing occasion are rounded in a standardized way according to patient body weight range, as described in Table 2.
PST3.1a is administered per os every 12±1 hours to fasted patients or after a regular meal, according to the schedule of the DL in which the patient is included. Fasting is defined as no food intake for 2 hours before and two hours after study drug administration. Cycles is of 21 days. If treatment is delayed for reasons other than toxicity, a maximal delay of 1 day is accepted.

[2] = Dynamic vapor sorption (DVS) analysis of the crystalline form; assay type: physicochemical
Text: In a particular embodiment, the crystalline form of the invention is non-hygroscopic.

[3] = DL1 = 10 mg/kg/day, FED patients
[4] = DL1 = 10 mg/kg/day, fasted patients
[5] = DL2 = 20 mg/kg/day, fasted patients
[6] = DL3 = 40 mg/kg/day, fasted patients

SMILES: O=[P@@]1(c2ccccc2)O[C@H](COCc2ccccc2)[C@@H](OCc2ccccc2)[C@H](OCc2ccccc2)C1O (some centres unmarked) [PST3.1a, 3-Hydroxy-4,5-bis-benzyloxy-6-benzyloxymethyl-2-phenyl-2-oxo-2λ5-[1,2]oxaphosphinane]
- Food effect on drug exposure (fed vs fasted patients) ([1]; DL1 = 10 mg/kg/day, comparison of Table 4): significative fed effect
- AUC [1, 3]: 426 ng·h/mL
- C-max [1, 3]: 43 ng/mL and 27.9 ng/mL
- T1/2 [1, 3]: 11.7 h
- AUC [1, 4]: 225 ng·h/mL
- C-max [1, 4]: 42 ng/mL and 28 ng/mL
- T1/2 [1, 4]: 8.1 h
- Pre dosing [1, 5]: 20.6 ng/mL
- C-max [1, 5]: 67.7 ng/mL
- T-Max [1, 5]: 1 h
- Pre dosing [1, 6]: 25.4 ng/mL and 46.3 ng/mL
- AUC [1, 6]: 650.6 ng·h/mL and 626.6 ng·h/mL
- C-max [1, 6]: 56.2 ng/mL and 97.6 ng/mL and 108.9 ng/mL
- T-Max [1, 6]: 1.5 h and 2 h (2×)
- half-life ([1]; human, in vivo, po, 10 mg/kg/day, DL1 = 10 mg/kg/day, FED patients): 17.5 h
- half-life ([1]; human, in vivo, po, 10 mg/kg/day, DL1 = 10 mg/kg/day, fasted patients): 9.2 h
- AUC ([1]; human, in vivo, po, 10 mg/kg/day, DL1 = 10 mg/kg/day, FED patients, read-out: AUC): 587 ng·h/mL
- AUC ([1]; human, in vivo, po, 10 mg/kg/day, DL1 = 10 mg/kg/day, fasted patients, read-out: AUC): 310 ng·h/mL
- half-life ([1]; human, in vivo, po, 20 mg/kg/day, DL2 = 20 mg/kg/day, fasted patients): 7.9 h
- AUC ([1]; human, in vivo, po, 20 mg/kg/day, DL2 = 20 mg/kg/day, fasted patients, read-out: AUC): 340 ng·h/mL
- AUC ([1]; human, in vivo, po, 40 mg/kg/day, DL3 = 40 mg/kg/day, fasted patients, read-out: AUC): 336 ng·h/mL
- Hygroscopicity ([2]; crystalline form): non-hygroscopic
- Weight loss in DVS analysis ([2]; relative humidity range 0% RH to 95% RH): lower than 0.1%
